Test system: A375 multi-cell spheroids with HUVEC/MSC, viability
Assay: Anticancer human tumor A375 cell line growth inhibition [GQUAD];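 further: spheroids exposed to compounds for seven days before readout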
Conditions: for IC50: curve of first compound; for viability, T/C: stronger effect = lower value; active means viability on the fitted dose curve at most 10% of control; inactive means the rest
Outline: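 Viability of tumor cells grown as complex spheroids with endothelial and stromal cells, exposed to drug combinations. Top concentration at or near clinical Cmax (else 10 microM), diluted in half-log increments.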

[1] = second compound 0.0316 µM, first compound 0.0316 µM
[2] = second compound 0.0316 µM, first compound 0.1 µM
[3] = second compound 0.0316 µM, first compound 0.316 µM
[4] = second compound 0.0316 µM, first compound 1 µM
[5] = second compound 0.0316 µM, first compound 3.16 µM
[6] = second compound 0.0316 µM, first compound 10 µM
[7] = second compound 0.1 µM, first compound 0.0316 µM
[8] = second compound 0.1 µM, first compound 0.1 µM
[9] = second compound 0.1 µM, first compound 0.316 µM
[10] = second compound 0.1 µM, first compound 1 µM
[11] = second compound 0.1 µM, first compound 3.16 µM
[12] = second compound 0.1 µM, first compound 10 µM
[13] = second compound 0.316 µM, first compound 0.0316 µM
[14] = second compound 0.316 µM, first compound 0.1 µM
[15] = second compound 0.316 µM, first compound 0.316 µM
[16] = second compound 0.316 µM, first compound 1 µM
[17] = second compound 0.316 µM, first compound 3.16 µM
[18] = second compound 0.316 µM, first compound 10 µM
[19] = second compound 1 µM, first compound 0.0316 µM
[20] = second compound 1 µM, first compound 0.1 µM
[21] = second compound 1 µM, first compound 0.316 µM
[22] = second compound 1 µM, first compound 1 µM
[23] = second compound 1 µM, first compound 3.16 µM
[24] = second compound 1 µM, first compound 10 µM
[25] = second compound 3.16 µM, first compound 0.0316 µM
[26] = second compound 3.16 µM, first compound 0.1 µM
[27] = second compound 3.16 µM, first compound 0.316 µM
[28] = second compound 3.16 µM, first compound 1 µM
[29] = second compound 3.16 µM, first compound 3.16 µM
[30] = second compound 3.16 µM, first compound 10 µM
[31] = second compound 10 µM, first compound 0.0316 µM
[32] = second compound 10 µM, first compound 0.1 µM
[33] = second compound 10 µM, first compound 0.316 µM
[34] = second compound 10 µM, first compound 1 µM
[35] = second compound 10 µM, first compound 3.16 µM
[36] = second compound 10 µM, first compound 10 µM

Cc1cccc(N(C)C(=O)C2C(O)CCN2c2nc(C)cc(C(F)(F)F)c2C#N)c1 (stereo not drawn) + Cc1[nH]c2ccc(F)cc2c1-c1nc2c3cccnc3c3ncccc3c2[nH]1
inactive: viability, T/C [1] 102% | viability, T/C [2] 102% | viability, T/C [3] 94.8% | viability, T/C [4] 98.6% | viability, T/C [5] 95.5% | viability, T/C [6] 95.2% | viability, T/C [7] 106% | viability, T/C [8] 94.5% | viability, T/C [9] 105% | viability, T/C [10] 108% | viability, T/C [11] 104% | viability, T/C [12] 103% | viability, T/C [13] 98.1% | viability, T/C [14] 100% | viability, T/C [15] 93.5% | viability, T/C [16] 111% | viability, T/C [17] 111% | viability, T/C [18] 107% | viability, T/C [19] 95.7% | viability, T/C [20] 101% | viability, T/C [21] 106% | viability, T/C [22] 109% | viability, T/C [23] 103% | viability, T/C [24] 105% | viability, T/C [25] 80% | viability, T/C [26] 90.2% | viability, T/C [27] 94.7% | viability, T/C [28] 84.2% | viability, T/C [29] 89.5% | viability, T/C [30] 79.4% | viability, T/C [31] 106% | viability, T/C [32] 100% | viability, T/C [33] 112% | viability, T/C [34] 106% | viability, T/C [35] 97.6% | viability, T/C [36] 91.7%
> 10000 nM: IC50 (second compound 0.0316 µM) | IC50 (second compound 0.1 µM) | IC50 (second compound 0.316 µM) | IC50 (second compound 1 µM) | IC50 (second compound 3.16 µM) | IC50 (second compound 10 µM)

CC(C)n1c(=O)n(C)c2cnc3cc(F)c(-c4ccc(OCCCN5CCCCC5)nc4)cc3c21 + Cc1cnc(CNC(=O)c2c(=O)c3ccc(N4CCCN(C)CC4)nc3n3c2sc2ccccc23)cn1
85.3 nM: IC50 (second compound 1 µM)
inactive: viability, T/C [1] 108% | viability, T/C [2] 90.5% | viability, T/C [3] 98.4% | viability, T/C [4] 82.2% | viability, T/C [5] 72.5% | viability, T/C [6] 58.7% | viability, T/C [7] 77.6% | viability, T/C [8] 64.2% | viability, T/C [9] 74.2% | viability, T/C [10] 63.4% | viability, T/C [11] 55.5% | viability, T/C [12] 50.7% | viability, T/C [13] 60.5% | viability, T/C [14] 53.1% | viability, T/C [15] 53% | viability, T/C [16] 49.8% | viability, T/C [17] 45.6% | viability, T/C [18] 37.6% | viability, T/C [19] 56% | viability, T/C [20] 47.4% | viability, T/C [21] 40.4% | viability, T/C [22] 45.2% | viability, T/C [23] 40.3% | viability, T/C [24] 30.5% | viability, T/C [25] 43.7% | viability, T/C [26] 41.9% | viability, T/C [27] 40% | viability, T/C [28] 36.8% | viability, T/C [29] 37.2% | viability, T/C [30] 28.4% | viability, T/C [31] 35.8% | viability, T/C [32] 39% | viability, T/C [33] 38.9% | viability, T/C [34] 34.2% | viability, T/C [35] 30.3% | viability, T/C [36] 22.8%
< 31.6 nM: IC50 (second compound 3.16 µM) | IC50 (second compound 10 µM)
778 nM: IC50 (second compound 0.316 µM)
> 10000 nM: IC50 (second compound 0.0316 µM) | IC50 (second compound 0.1 µM)

C=CCn1c(=O)c2cnc(Nc3ccc(N4CCN(C)CC4)cc3)nc2n1-c1cccc(C(C)(C)O)n1 + Cc1[nH]c2ccc(F)cc2c1-c1nc2c3cccnc3c3ncccc3c2[nH]1
active: viability, T/C [6] 4.8% | viability, T/C [12] 6.47% | viability, T/C [18] 6.56% | viability, T/C [24] 8.03% | viability, T/C [29] 7.29% | viability, T/C [30] 5.68% | viability, T/C [36] 5.93%
inactive: viability, T/C [1] 108% | viability, T/C [2] 94.2% | viability, T/C [3] 93.6% | viability, T/C [4] 51.6% | viability, T/C [5] 11.5% | viability, T/C [7] 106% | viability, T/C [8] 94.2% | viability, T/C [9] 94.2% | viability, T/C [10] 52.7% | viability, T/C [11] 15.4% | viability, T/C [13] 104% | viability, T/C [14] 103% | viability, T/C [15] 93.3% | viability, T/C [16] 48.8% | viability, T/C [17] 12.4% | viability, T/C [19] 101% | viability, T/C [20] 104% | viability, T/C [21] 80% | viability, T/C [22] 36.8% | viability, T/C [23] 12.3% | viability, T/C [25] 59.1% | viability, T/C [26] 45.1% | viability, T/C [27] 33.3% | viability, T/C [28] 19.5% | viability, T/C [31] 77.5% | viability, T/C [32] 63.9% | viability, T/C [33] 23.9% | viability, T/C [34] 20.2% | viability, T/C [35] 8.19%
1100 nM: IC50 (second compound 0.1 µM)
1040 nM: IC50 (second compound 0.0316 µM)
968 nM: IC50 (second compound 0.316 µM)
72.2 nM: IC50 (second compound 3.16 µM)
703 nM: IC50 (second compound 1 µM)
149 nM: IC50 (second compound 10 µM)

Cc1[nH]c2ccccc2c1CCNCc1ccc(/C=C/C(=O)NO)cc1 + CN(C)c1ccc(Nc2c3ccc(NC(=O)CCN4CCCC4)cc3nc3cc(NC(=O)CCN4CCCC4)ccc23)cc1
156 nM: IC50 (second compound 0.0316 µM)
97.7 nM: IC50 (second compound 10 µM)
127 nM: IC50 (second compound 0.316 µM)
106 nM: IC50 (second compound 3.16 µM)
119 nM: IC50 (second compound 1 µM)
133 nM: IC50 (second compound 0.1 µM)
active: viability, T/C [3] 9.06% | viability, T/C [9] 7.22% | viability, T/C [15] 7.25% | viability, T/C [21] 5.35% | viability, T/C [27] 5.53% | viability, T/C [33] 3.5%
inactive: viability, T/C (second compound 0.0316 µM, first compound 0.000999 µM) 111% | viability, T/C (second compound 0.0316 µM, first compound 0.00316 µM) 101% | viability, T/C (second compound 0.0316 µM, first compound 0.00999 µM) 110% | viability, T/C [1] 122% | viability, T/C (second compound 0.0316 µM, first compound 0.0999 µM) 76% | viability, T/C (second compound 0.1 µM, first compound 0.000999 µM) 99.1% | viability, T/C (second compound 0.1 µM, first compound 0.00316 µM) 110% | viability, T/C (second compound 0.1 µM, first compound 0.00999 µM) 124% | viability, T/C [7] 127% | viability, T/C (second compound 0.1 µM, first compound 0.0999 µM) 64% | viability, T/C (second compound 0.316 µM, first compound 0.000999 µM) 107% | viability, T/C (second compound 0.316 µM, first compound 0.00316 µM) 110% | viability, T/C (second compound 0.316 µM, first compound 0.00999 µM) 111% | viability, T/C [13] 114% | viability, T/C (second compound 0.316 µM, first compound 0.0999 µM) 61.5% | viability, T/C (second compound 1 µM, first compound 0.000999 µM) 104% | viability, T/C (second compound 1 µM, first compound 0.00316 µM) 113% | viability, T/C (second compound 1 µM, first compound 0.00999 µM) 116% | viability, T/C [19] 110% | viability, T/C (second compound 1 µM, first compound 0.0999 µM) 58% | viability, T/C (second compound 3.16 µM, first compound 0.000999 µM) 98.4% | viability, T/C (second compound 3.16 µM, first compound 0.00316 µM) 106% | viability, T/C (second compound 3.16 µM, first compound 0.00999 µM) 113% | viability, T/C [25] 114% | viability, T/C (second compound 3.16 µM, first compound 0.0999 µM) 52.3% | viability, T/C (second compound 10 µM, first compound 0.000999 µM) 111% | viability, T/C (second compound 10 µM, first compound 0.00316 µM) 98.7% | viability, T/C (second compound 10 µM, first compound 0.00999 µM) 112% | viability, T/C [31] 106% | viability, T/C (second compound 10 µM, first compound 0.0999 µM) 48.9%
